Like-named read-outs stand apart in the source and are kept apart here.
What was measured:
[1] = In vitro human microsomal stability assay; format: in vitro ADME; settings: for HUMAN MICROSOMAL STABILITY (% REMAINING AFTER 30 MINUTES): microsomes, 0.5 h, 0.5 μM, pH 7.4
Method in brief: (§1)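 Test compounds were incubated at 37° C. with Sprague-Dawley rat liver microsomes or with human liver microsomes. NADPH was supplied as cofactor and was also added to the time-zero plates.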

human TRPV3 = target: T1, human TRPV3 (Homo sapiens, UniProt Q8NET8); assay: In vitro antagonism of recombinant human TRPV3 activation (FLIPR Tetra calcium assay); format: cell-based; settings: HEK293 cells stably expressing human TRPV3, agonist 2-APB at 80 μM
T1 construct: expressed in transfected cells
T1 sequence (Q8NET8 1-790): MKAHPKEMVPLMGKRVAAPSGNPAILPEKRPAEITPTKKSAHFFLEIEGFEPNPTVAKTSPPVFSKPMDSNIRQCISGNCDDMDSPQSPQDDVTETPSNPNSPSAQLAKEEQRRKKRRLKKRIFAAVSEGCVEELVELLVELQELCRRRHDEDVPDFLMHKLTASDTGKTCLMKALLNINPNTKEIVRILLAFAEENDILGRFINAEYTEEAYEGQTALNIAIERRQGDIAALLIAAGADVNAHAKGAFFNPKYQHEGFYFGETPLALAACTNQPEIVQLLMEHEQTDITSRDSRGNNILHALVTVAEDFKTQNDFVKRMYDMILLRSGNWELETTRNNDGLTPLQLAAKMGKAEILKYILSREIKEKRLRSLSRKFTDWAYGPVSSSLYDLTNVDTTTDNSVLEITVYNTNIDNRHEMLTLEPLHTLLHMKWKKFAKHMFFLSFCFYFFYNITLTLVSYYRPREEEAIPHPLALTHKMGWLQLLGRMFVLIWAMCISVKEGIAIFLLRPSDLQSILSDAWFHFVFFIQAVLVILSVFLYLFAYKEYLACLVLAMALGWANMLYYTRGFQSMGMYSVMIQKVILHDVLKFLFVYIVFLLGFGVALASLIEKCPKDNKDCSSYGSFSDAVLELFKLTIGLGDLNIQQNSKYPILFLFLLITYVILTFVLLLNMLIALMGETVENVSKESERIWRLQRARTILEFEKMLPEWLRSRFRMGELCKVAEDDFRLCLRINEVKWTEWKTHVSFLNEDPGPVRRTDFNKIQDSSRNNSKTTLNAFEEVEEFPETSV
Method in brief: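 HEK293 cells stably expressing human TRPV3, loaded with Calcium-4 dye for 90–120 min, received compound in DPBS, then 80 μM 2-APB (EC80) 3 min later. Max-minus-min fluorescence expressed as % of 2-APB response without antagonist; IC50 values mostly averages of n≥2 runs.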

[2] = In vitro rat microsomal stability assay; format: in vitro ADME, rat (Sprague-Dawley); settings: for RAT MICROSOMAL STABILITY (% REMAINING AFTER 30 MINUTES): Sprague-Dawley, microsomes, 0.5 h, 0.5 μM, pH 7.4
Method in brief: as §1

[3] = actual measured value shown parenthetically, in most cases average of at least two runs, read-out: IC50
[4] = reported range, read-out: IC50 (range class)

| SMILES | HUMAN MICROSOMAL STABILITY (% REMAINING AFTER 30 MINUTES) [1] [%] | IC50 (human TRPV3; [3]) [µM] | RAT MICROSOMAL STABILITY (% REMAINING AFTER 30 MINUTES) [2] [%] | IC50 (human TRPV3; [4]) [µM] | HUMAN […] (% REMAINING AFTER 30 MINUTES) ([1]; human liver microsomes, 0.5 μM substrate, 0.25 mg/mL microsomal protein, pH 7.4, 37° C., NADPH, 30 minutes) [%] | RAT […] (% REMAINING AFTER 30 MINUTES) ([2]; rat liver microsomes (Sprague-Dawley), 0.5 μM substrate, 0.25 mg/mL microsomal protein, pH 7.4, 37° C., NADPH, 30 minutes) [%] |
| --- | --- | --- | --- | --- | --- | --- |
| OC(C1CCc2cccnc21)C1(c2ccc(F)c(F)c2)CCC1 (stereo not drawn) [Example 172, (syn)-[1-(3,4-difluorophenyl)cyclobutyl][6,7-dihydro-5H-cyclopenta[b]-pyridin-7-yl]methanol] | 2.4 | > 20 | <0.01 | > 20 |  |  |
| OC(C1CCc2cccnc21)C1(c2ccc(C(F)(F)F)cc2)CCC1 (stereo not drawn) [Example 173, (anti)-6,7-dihydro-5H-cyclopenta[b]pyridin-7-yl{1-[4-(trifluoromethyl)-phenyl]cyclobutyl}methanol] | 45 | > 20 | <0.01 | > 20 |  |  |
| OC(C1CCc2cccnc21)C1(c2ccc(C(F)(F)F)cc2)CCC1 (stereo not drawn) [Example 174, (syn)-6,7-dihydro-5H-cyclopenta[b]pyridin-7-yl{1-[4-(trifluoromethyl)-phenyl]cyclobutyl}methanol] | 26 | > 20 | <0.01 | > 20 |  |  |
| OC(C1CCc2cccnc21)C1(c2ccc(OC(F)(F)F)cc2)CCC1 (stereo not drawn) [Example 175, (anti)-6,7-dihydro-5H-cyclopenta[b]pyridin-7-yl{1-[4-(trifluoromethoxy)-phenyl]cyclobutyl}methanol] | 29 | > 20 | <0.01 | > 20 |  |  |
| OC(C1CCc2cccnc21)C1(c2ccc(OC(F)(F)F)cc2)CCC1 (stereo not drawn) [Example 176, (syn)-6,7-dihydro-5H-cyclopenta[b]pyridin-7-yl{1-[4-(trifluoromethoxy)-phenyl]cyclobutyl}methanol] | 20 | > 20 | <0.01 | > 20 |  |  |
| OC(C1CCc2cccnc21)C1(c2cccc(C(F)(F)F)c2)CCC1 (stereo not drawn) [Example 185, (anti)-6,7-dihydro-5H-cyclopenta[b]pyridin-7-yl{1-[3-(trifluoromethyl)-phenyl]cyclobutyl}methanol] |  | > 20 |  | > 20 | 0.39 | <0.01 |
| OC(C1CCc2cccnc21)C1(c2cccc(C(F)(F)F)c2)CCC1 (stereo not drawn) [Example 186, (syn)-6,7-dihydro-5H-cyclopenta[b]pyridin-7-yl{1-[3-(trifluoromethyl)-phenyl]cyclobutyl}methanol] | 0.18 | > 20 | <0.01 | > 20 |  |  |
| OC(C1CCCc2cccnc21)C1(c2cccc(OC(F)(F)F)c2)CCC1 (stereo not drawn) [Example 187, (anti)-5,6,7,8-tetrahydroquinolin-8-yl{1-[3-(trifluoromethoxy)phenyl]-cyclobutyl}methanol] | <0.01 | > 20 | <0.01 | > 20 |  |  |
| OC(C1CCCc2cccnc21)C1(c2cccc(OC(F)(F)F)c2)CCC1 (stereo not drawn) [Example 188, (syn)-5,6,7,8-tetrahydroquinolin-8-yl{1-[3-(trifluoromethoxy)phenyl]-cyclobutyl}methanol] | 0.16 | > 20 | <0.01 | > 20 |  |  |
| OC(C1CCc2cccnc21)C1(c2cccc(OC(F)(F)F)c2)CCC1 (stereo not drawn) [Example 189, (anti)-6,7-dihydro-5H-cyclopenta[b]pyridin-7-yl{1-[3-(trifluoromethoxy)-phenyl]cyclobutyl}methanol] | 0.65 | > 20 | <0.01 | > 20 |  |  |
| OC(C1CCc2cccnc21)C1(c2cccc(OC(F)(F)F)c2)CCC1 (stereo not drawn) [Example 190, (syn)-6,7-dihydro-5H-cyclopenta[b]pyridin-7-yl{1-[3-(trifluoromethoxy)-phenyl]cyclobutyl}methanol] | 3.7 | > 20 | <0.01 | > 20 |  |  |
| OC(C1CCCc2cccnc21)C1(c2ccccc2OC(F)(F)F)CCC1 (stereo not drawn) [Example 192, (syn)-5,6,7,8-tetrahydroquinolin-8-yl{1-[2-(trifluoromethoxy)phenyl]-cyclobutyl}methanol] | <0.01 | > 20 | <0.01 | > 20 |  |  |
| OC(C1CCc2cccnc21)C1(c2ccccc2OC(F)(F)F)CCC1 (stereo not drawn) [Example 194, (syn)-6,7-dihydro-5H-cyclopenta[b]pyridin-7-yl{1-[2-(trifluoromethoxy)-phenyl]cyclobutyl}methanol] | 0.08 | > 20 | <0.01 | > 20 |  |  |

Continued, in another order:

| HUMAN MICROSOMAL STABILITY (% REMAINING AFTER 30 MINUTES) [1] [%] | IC50 (human TRPV3; [3]) [µM] | RAT MICROSOMAL STABILITY (% REMAINING AFTER 30 MINUTES) [2] [%] | IC50 (human TRPV3; [4]) [µM] | SMILES | HUMAN […] (% REMAINING AFTER 30 MINUTES) ([1]; human liver microsomes, 0.5 μM substrate, 0.25 mg/mL microsomal protein, pH 7.4, 37° C., NADPH, 30 minutes) [%] | RAT […] (% REMAINING AFTER 30 MINUTES) ([2]; rat liver microsomes (Sprague-Dawley), 0.5 μM substrate, 0.25 mg/mL microsomal protein, pH 7.4, 37° C., NADPH, 30 minutes) [%] |
| --- | --- | --- | --- | --- | --- | --- |
| 45 | 1.98 | 65 |  | O[C@@H](c1ccccn1)C1(c2ccc(OC(F)(F)F)cc2)CC(F)(F)C1 [Example 159, (R)-{3,3-difluoro-1-[4-(trifluoromethoxy)phenyl]cyclobutyl}(pyridin-2-yl)-methanol] |  |  |
| >85 | 6.11 | 60 |  | O=C1CC(c2ccc(C(F)(F)F)cc2)(C(O)c2ccccn2)C1 (stereo not drawn) [Example 160, 3-[hydroxy(pyridin-2-yl)methyl]-3-[4-(trifluoromethyl)phenyl]-cyclobutanone] |  |  |
| 61 | 3.27 | <0.01 |  | OC(c1ccccn1)C1(c2ccc(C(F)(F)F)cc2)CC2(C1)OCCO2 (stereo not drawn) [Example 161, pyridin-2-yl{2-[4-(trifluoromethyl)phenyl]-5,8-dioxaspiro[3.4]oct-2-yl}-methanol] |  |  |
| 0.02 | 3.88 | <0.01 |  | OC(c1ccccn1)C1(C2CCCCC2)CCC1 (stereo not drawn) [Example 162, (1-cyclohexylcyclobutyl)(pyridin-2-yl)methanol] |  |  |
| 0.11 | 4.9 | <0.01 |  | OC(c1ccccn1)C1(C2CCCC2)CCC1 (stereo not drawn) [Example 163, (1-cyclopentylcyclobutyl)(pyridin-2-yl)methanol] |  |  |
| 9.5 | > 20 | <0.01 | > 20 | OC(C1CCc2cccnc21)C1(c2ccc(Cl)c(Cl)c2)CCC1 (stereo not drawn) [Example 167, (anti)-[1-(3,4-dichlorophenyl)cyclobutyl][6,7-dihydro-5H-cyclopenta[b]-pyridin-7-yl]methanol] |  |  |
| 5.6 | 9.14 | <0.01 |  | OC(C1CCc2cccnc21)C1(c2ccc(Cl)c(Cl)c2)CCC1 (stereo not drawn) [Example 168, (syn)-[1-(3,4-dichlorophenyl)cyclobutyl][6,7-dihydro-5H-cyclopenta[b]-pyridin-7-yl]methanol] |  |  |
| 2.7 | > 20 | <0.01 | > 20 | OC(C1CCc2cccnc21)C1(c2ccc(F)c(F)c2)CCC1 (stereo not drawn) [Example 171, (anti)-[1-(3,4-difluorophenyl)cyclobutyl][6,7-dihydro-5H-cyclopenta[b]-pyridin-7-yl]methanol] |  |  |
| <0.01 | > 7.4 | <0.01 |  | OC(C1CCCc2cccnc21)C1(c2ccccc2OC(F)(F)F)CCC1 (stereo not drawn) [Example 191, (anti)-5,6,7,8-tetrahydroquinolin-8-yl{1-[2-(trifluoromethoxy)phenyl]-cyclobutyl}methanol] |  |  |

Source: patent publication US8772499B2, “TRPV3 modulators” (AbbVie Inc., priority 2011, dated 2014)
